Measured values reported in article PMC3511435, “A Transposon-Derived DNA Polymerase from Entamoeba histolytica Displays Intrinsic Strand Displacement, Processivity and Lesion Bypass” (PLoS ONE, 2012).

Test system: T1, EhDNApolB2
T1 construct: N-terminal 153 residues deleted, 660-aa C-terminal exonuclease and polymerase region, pCOLD I vector (IMAC-purified), E. coli BL21 DE3 Rosetta II, 78 kDa
Experiment: primer extension on M13mp18 ssDNA, denaturing gel, phosphorimaging
Format: biochemical, Entamoeba histolytica
Conditions: 25 µM dNTPs; 1 nM 32P-labelled 17mer primer / circular M13mp18 ssDNA; 20 nM enzyme; 10 min, 37 °C; read-out: reduced by half at a concentration of

C[C@@]1(CO)[C@H](O)CC[C@@]2(C)[C@H]1CC[C@H]1C[C@@H]3C[C@@]12CC[C@]3(O)CO [aphidicolin]
IC50: 242 µM
